Data on one molecule can be found in patent US20070158208A1, “Apparatus and methods for treating ballast water by using electrolysis of natural seawater” (Research Institute of Industrial Science & Technology, priority 2003, published 2007).

For assay [1] the following is noted: NaOCl obtained during the electrolysis compared with HCl; cited from earlier work.
A further assay has as its system Oxyrrhis marina. Briefly: Influence density of NaOCl in electrolyzed water on marine ecosystem. The class given is in vivo. As to conditions: Protista. As for the experimental part: (§1) In the meantime, according to the present invention, marine microorganisms are effectively killed. Influence density for most of organisms in the seawater by electrolyzed water is shown on Table 1 below. As a result of performing the present invention, it has been checked by a natural eye that organisms causing red tide is completely eliminated within 1-2 minutes after spreading of the electrolyzed water. A density of Cochlodinium which has been a population of 7-8 thousand/ml in an actual relevant sea area has approached almost zero after four hours elapse, showing high relief efficiency. If the NaOCl component density required by the electrolyzed water is controlled, complete elimination of marine microorganisms is achieved.

For assay [2], the system named is Seaweeds spore: Borphyra seriata, Ulva pertusa, Brown seaweed. The assay is described as above. It is filed as in vivo. The protocol:
as §1

Assay [3] has as its system Adult benthic fauna: Tapes philippinarum, Giant pacific oyster, Pachygrapsus crassipes. Described as above. It is filed as in vivo. The protocol: as §1
The subject of a further assay is Acartia spp.(Copepoda). The assay is described as above. The class given is in vivo. The protocol:
as §1

Assay [4] relates to Adult seaweeds: Borphyra seriata, Ulva pertusa. The description is as above. The class given is in vivo. The protocol: as §1
Another assay has as its system Polykrikos kofodidii. The assay is described as above. The class given is in vivo. As to conditions: Protista. As for the experimental part:
as §1

Assay [5] deals with Pseudodiaptomus spp.(Copepoda). The assay is described as above. It is filed as in vivo. As to conditions: Zooplankton. As for the experimental part:
as §1

In another assay the test system is Barnacle larva. Described as above. As to conditions: Benthic fauna larva. It is filed as in vivo. As for the experimental part:
as §1

For assay [6], the system named is Artemia larva(Kugenumaenis). The assay is described as above. It is filed as in vivo. The conditions noted are these: Benthic fauna larva. The protocol: as §1
For another assay, the system named is Strombidinopsis sp. Described as above. The class given is in vivo. The conditions noted are these: Protista. As for the experimental part: as §1
The test system of assay [7] is Fish: Bastard halibut fry, sebastes schlegeli fry. Described as above. It is filed as in vivo. The protocol:
as §1

Consider `[Na+].[O-]Cl` [NaOCl], for which, in assay [1], the “Insecticide and sterilizing effects relative to HCl” value is recorded as “about 1.4 times”. Also, the Influence density in the assay with Oxyrrhis marina is 0.3 ppm; in assay [2], 0.1-0.3 ppm; in assay [3], 20 or more ppm; with Acartia spp.(Copepoda) it was 2.0 ppm; in [4] it was 1.0-1.5 ppm; in the assay on Polykrikos kofodidii, 0.75-1.0 ppm. For the same molecule, the Influence density in [5] was 10-20 ppm; in the assay on Barnacle larva it was 50 ppm; in assay [6], 30-50 ppm; with Strombidinopsis sp, 0.75-1.0 ppm; in assay [7], 2-5 ppm.
